{"source": "patent US20160151408A1", "about": "“NOVEL THERAPY FOR MULTIPLE SCLEROSIS USING VITAMIN D AND GUT BACTERIA” (California Institute of Technology, priority 2012, published 2016)", "key": {"EAE": {"tested_on": "EAE", "settings": "refs [6,8], [31,32]; cited from earlier work"}, "CD4+Foxp3+ T cells": {"tested_on": "CD4+Foxp3+ T cells", "assay": "Mouse DC / CD4+ T cell co-culture, Foxp3+ TREG induction", "type": "cell-based", "description": "(§1) FIG. 5, panels A-C. Graphs and plots showing vitamin D augments the ability of PSA to promote TREGS. (FIG. 5, panel A) Mouse BMDCs were stimulated with PSA (or PBS), and Cyp27b1 transcript levels were measured by qRT-PCR. PSA induces the expression of Cyp27b1 from WT, but not TLR2−/− DCs. (FIG. 5, panel B) Mouse DCs were treated with PSA, washed and co-cultured with naïve CD4+ T cells. After 4 days, PSA increased Foxp3+TREGS (see % in red box). The vitamin D metabolite 25D augmented PSA-induced TREGS. (FIG. 5, panel C) Human monocytes were treated with PSA or vehicle, washed and co-cultured with CD4+ T cells from PBMCs of the same donor. The MR for Foxp3 among CD4+CD25+ T cells is shown, with or without TGFβ.\n(§2) Next tested was whether vitamin D enhanced the ability of PSA to induce Foxp3+ TREG cells in vitro. BMDCs treated with PSA or PBS, with or without 25D, were incubated with CD4+ T cells from the spleens of mice. […] The Hewison group has described […] expression of CYP27B1 in human DCs, and has shown the effects of vitamin D on human TREG development in vitro [11]. However, the ability of PSA to induce human Foxp3+ TREG cells has not been reported. […] These studies further link PSA-induced TREGS to the vitamin D pathway. Thus, PSA and vitamin D may promote human TREG cells."}, "[1]": {"tested_on": "Foxp3 among CD4+CD25+ T cells", "assay": "Human monocyte / CD4+ T cell co-culture, Foxp3 expression", "type": "cell-based", "description": "as §1, §2"}, "Cyp27b1 [2]": {"tested_on": "Cyp27b1", "assay": "Cyp27b1 transcript levels in PSA-stimulated BMDCs (qRT-PCR)", "type": "cell-based, Mouse", "description": "as §1\nAs described, the ability of PSA to protect against colitis & EAE in mice involves Foxp3+ TREGS [8,48]. The inventors recognize that vitamin D may play a pivotal role in microbial-induced TREGS, given the ability of 1,25D to promote TREG generation and the novel findings that PSA induces the vitamin D-system. First, the cell type that is responsible for PSA-dependent conversion of 25D to active 1,25D was made. The inventors have shown that PSA activates DCs, which prime TREG responses."}, "[3]": {"tested_on": "experimental autoimmune encephalomyelitis (EAE)", "assay": "EAE clinical scores in mice on normal or vitamin D-deficient diet", "type": "in vivo, C57BL/6 mice", "description": "FIG. 2, panels A-D. Graphs showing germ-free (GF) mice are attenuated in EAE. Female C57B1/6 mice were immunized subcutaneously (s.c.) with 150 μg MOG35-55 peptide with 200 μg of Complete Freund's adjuvant (CFA). On the same day and 2 days later, mice were injected intraperitoneally (i.p.) with 150 ng/mouse of pertussis toxin. (FIG. 2, panel A) Clinical EAE scores of SPF (dark symbols) and GF (light symbols). Data are representative of three independent experiments. (FIG. 2, panel B) Proportions of SPF and GF mice that develop various degrees of EAE, as assessed by clinical score. Results are combined from 4 experiments, with a total of 20 for SPF and 22 for GF mice. (FIG. 2, panel C) IFNγ and IL-17A cytokine ELISA analysis of cells harvested from draining lymph nodes of SPF and GF mice 8 days after immunization with MOG/CFA and cultured for 3 days in vitro with MOG peptide. (FIG. 2, panel D) CD4+CD25+Foxp3+ T cells at day 15 post-immunization. Cells were cultured for 3 days with MOG peptide, and analyzed by flow cytometry. Data from Lee et al., PANS, 2011 [2].\nFIG. 6. […]\nTo asses EAE in mice, mice can be evaluated daily for signs of disease. The clinical course of the EAE can be scored according to the severity as follows: 0=no obvious signs of disease, 0.5=partial tail weakness (cannot raise tail against gravity), 1=limp tail, 1.5=limp tail and hindlimb weakness, 2=limp tail and impairment in righting reflex, 2.5=limp tail and hindlimb paresis (as determined by gait abnormality), 3=bilateral hindlimb paralysis, 3.5=bilateral hindlimb paralysis and forelimb paresis (as determined by in ability of the mouse to strongly grasp cage bars with the fore paws when placed on top), 4=moribund, 5=dead. […] Reduced symptoms of EAE can be evaluated by comparing clinical scores.\nPSA protects mice from EAE [8]; however, it is unknown whether PSA protection requires vitamin D. To address whether PSA may serve as a viable therapy for vitamin D deficient MS patients, mice on vitamin D sufficient and deficient diets were raised, EAE was induced, and PSA's protective effects were assessed."}, "colitis": {"tested_on": "colitis", "settings": "refs [4,5,22]; cited from earlier work"}, "Cyp27b1 [4]": {"tested_on": "Cyp27b1", "assay": "Colonic Cyp27b1 mRNA by qRT-PCR in mice", "settings": "mice on vitamin D deficient diet for 6 weeks, fed PSA for 2 weeks"}, "VDR": {"tested_on": "VDR", "assay": "VDR mRNA levels in colonic tissue of germ-free mice", "settings": "oral gavage of GF animals"}}, "data": [{"compound": "C=C1/C(=C\\C=C2/CCC[C@]3(C)[C@@H]([C@H](C)CCCC(C)(C)O)CC[C@@H]23)C[C@@H](O)C[C@@H]1O", "note": "[1,25D, 1,25-dihydroxyvitamin D3, reference compound]", "values": [{"measurement": "EAE disease (literature)", "setting": "EAE", "value": "protected from disease"}]}, {"compound": "C=C1CC[C@H](O)C/C1=C/C=C1\\CCC[C@]2(C)[C@@H]([C@H](C)CCCC(C)(C)O)CC[C@@H]12", "note": "[25D, 25-hydroxyvitamin-D3, reference compound]", "values": [{"measurement": "PSA-induced CD4+Foxp3+ T cells, effect of co-treatment", "setting": "CD4+Foxp3+ T cells; BMDCs treated with PSA with 25D", "value": "enhanced by co-treatment with 25D"}]}, {"compound": "TGFβ [reference compound]", "values": [{"measurement": "PSA-mediated TREG cells, effect of added TGFβ", "setting": "[1]; with TGFβ", "value": "does not further enhance PSA-mediated TREG cells"}]}, {"compound": "polysaccharide A [PSA]", "values": [{"measurement": "Cyp27b1 expression from BMDCs", "setting": "Cyp27b1 [2]; TLR2−/− DCs", "value": "did not respond to PSA"}, {"measurement": "Cyp27b1 expression from BMDCs", "setting": "Cyp27b1 [2]; WT bone marrow-derived dendritic cells", "value": "induces Cyp27b1 expression"}, {"measurement": "proportions of CD4+Foxp3+ T cells in culture", "setting": "CD4+Foxp3+ T cells; BMDCs treated with PSA, co-cultured with CD4+ T cells, 4 days", "value": "increases the proportions of CD4+Foxp3+ T cells in culture"}, {"measurement": "Foxp3 expression in human TREGS", "setting": "[1]; monocytes treated with PSA, co-cultured with CD4+ T cells from PBMCs of the same donor", "value": "promotes Foxp3 expression in human TREGS in vitro"}, {"measurement": "interaction of PSA with vitamin D in EAE protection", "setting": "[3]; PSA groups on sufficient versus deficient diet", "value": "synergizes with vitamin D during protection from EAE"}, {"measurement": "EAE clinical score at the peak of disease", "setting": "[3]; day 14, vitamin D sufficient and deficient diets, PSA 100 μg/dose orally 3×/week", "value": "protected from EAE"}, {"measurement": "EAE clinical score during the remission phase", "setting": "[3]; day 20-35, vitamin D sufficient diet versus deficient, PSA 100 μg/dose orally 3×/week", "value": "attenuated in disease during the remission phase if they were fed vitamin D sufficient diets"}, {"measurement": "EAE disease (literature)", "setting": "EAE", "value": "ameliorates and treats EAE"}, {"measurement": "colitis (literature)", "setting": "colitis", "value": "prevents and treats colitis in mice"}, {"measurement": "colonic Cyp27b1 expression", "setting": "Cyp27b1 [4]", "value": "induces increased colonic Cyp27b1"}, {"measurement": "expression of VDR in the colon", "setting": "VDR", "value": "increases expression of VDR"}]}]}
